The source of these data is patent US7208157B2, “Proteolysis targeting chimeric pharmaceutical” (California Institute of Technology, priority 2000, dated 2007).

Entries after “also recorded” stand apart in the source; their conditions may differ. Where a SMILES comes first, the peptide text is derived from it. [ ]: non-standard residue; d: D form. Nle = CCCC[C@H](N)C(=O)O

For assay [1], the target named is T1, MetAP-2 (Homo sapiens, UniProt P50579). Briefly: Degradation experiments with Xenopus egg extracts. In kind it is biochemical, Xenopus laevis. As for the experimental part:
Extracts from unfertilized Xenopus laevis eggs were prepared the day of the experiment, as described (See Murray, A. W., Methods Cell Biol., 3:581–605 (1991)). The MetAP-2-Protac-1 mixture (4 μl of 9 μM MetAP-2 plus 50 μMProtac-1) or MetAP-2 alone was added to […] of extract in addition to OVA (10 μM final), constitutively active IKK (IKK-EE, 0.4 μg), and okadaic acid (OA; 10 μM final). N-acetyl-leu-leu-norleucinal (LLnL, 50 μM final), epoxomicin (10 μM final), or DMSO vehicle were added to the indicated concentrations to inhibit degradation by the proteasome. The protease inhibitors chymostatin, pepstatin, and leupeptin ([…] final concentration) also were added to the extracts. Reactions were incubated for the indicated times at room temperature and terminated by adding 50 μl of SDS/PAGE loading buffer. Samples were evaluated by Western blotting as described above.
However, the key issues are whether Protac-1 can specifically activate MetAP-2 degradation, and whether targeted degradation can be achieved by endogenous ubiquitin/proteasome pathway components at typical intracellular concentrations. To address these questions, MetAP-2 was preincubated with Protac-1 to allow the complexes to form, and then added the mixture to Xenopus egg extract supplemented with IKK-EE (See Mercurio, F., Zhu, et al., Science,. 278:860–66. (1997)), OA, and OVA. The addition of IKK-EE and OA was intended to sustain phosphorylation of the IkBa peptide moiety of Protac-1, whereas OVA was added to prevent the further linkage of Protac-1 to MetAP-2. […] Moreover, addition of both IKK-EE and OA was required for optimal degradation of MetAP-2-Protac-1. Similarly, we have seen specific turnover of the MetAP-2-Protac-1complex, but not free MetAP-2, in three independent experiments. […] MetAP-2 turnover was very specific, in that maximal degradation required agents predicted to sustain phosphorylation of the LkBa peptide.

Assay [2] concerns the target T1, MetAP-2. The settings on record: covalent, active site His-231; cited from earlier work.
Assay [3] deals with T1, MetAP-2. Briefly: MetAP-2-Protac-1 coupling assay (SDS/PAGE, anti-MetAP-2 immunoblot). In kind it is binding. The settings on record: MetAP-2 incubated with increasing Protac-1, or free IPP (50 μM) or free OVA (50 μM), room temperature 45 min. As for the experimental part: MetAP-2 (9 μM) was incubated with increasing concentrations of Protac-1 (dissolved in water) at room temperature for 45 min. Reactions were supplemented with SDS loading dye, fractionated on an SDS/10% polyacryl-amide gel, transferred onto a nitrocellulose membrane, and immunoblotted with rabbit polyclonal anti-MetAP-2 antiserum (Zymed). Enhanced chemiluminescence was performed by using Amersham Pharmacia detection reagents.
The IkBalpha-OVA chimera, Protac-1 (FIG. 1B), was synthesized as described above. […] A Western blot analysis was performed with anti-MetAP-2 antiserum. […] The specificity of MetAP-2 interaction with Protac-1 in vitro was also tested.

Assay [4] deals with MetAP-2. Briefly: In vitro ubiquitination of MetAP-2 by SCFβ-TRCP beads with E1, E2 (Cdc34), ubiquitin, ATP. The class given is biochemical. The settings on record: 1 hr at 30° C.; 47-kDa and 67-kDa MetAP-2 preparations; Western blot. For orientation: In western blotting, separated proteins are transferred to a membrane and probed.
Experimental: Pellets from cells transfected with vector, pFLAG-β-TRCP, or pFLAG-Cul-1 were vortexed for 10 sec, then incubated on ice for 15 min. After centrifugation at 13,000 rpm in an Eppendorf microfuge (Germany) for 5 min at 4° C., the supernatant was added to 20 μl of FLAG M2 beads (Sigma), which were washed with lysis buffer three times before immu-noprecipitation. Lysates were incubated with the beads on a rotator for 2 hr at 4° C., followed by one wash with buffer A (25 mM Hepes buffer, pH 7.4/0.01% Triton X-100/150 mM NaCl) and one wash with buffer B (the same buffer without the Triton X-100). […] After the addition of ligand, the beads were rotated at room temperature for 1 hr. The beads were washed once each with buffers A and B. After centrifugation at 13,000 rpm in an Eppendorf microfuge (Germany) for 1 min, half of the bead and supernatant fractions, representing bound and unbound, respectively, were evaluated by Western blotting as described above. For ubiquitination reactions, 4 μl of 18 μM MetAP-2, 4 μl of 100 μM Protac-1, 0.5 ml of 0.1 μg/μl purified mouse E1, 1 μl of 0.5 μg/μl human Cdc34 E2, and 1 μl of 25 mM ATP were added to 20 μl (packed volume) of washed FLAG-M2 beads. […] SDS/PAGE loading buffer was added to terminate reactions, which were evaluated by Western blotting as described above. […]
Assay [5] concerns the target T2, SCF^β-TRCP (Homo sapiens, UniProt Q9Y297). In words: Binding assay: recruitment of MetAP-2 to SCFβ-TRCP beads. Set-up: made in house. The settings on record: MetAP-2 (18 μM) preincubated with Protac-1 (100 μM) 45 min; beads 1 hr room temperature; vs control beads. Here is the method:
293T cell pellets were lysed with 200 μl of lysis buffer (25 mMTris/Cl, pH 7.5/150 mM NaCl/0.1% Triton X-100/5 mM NaF/0.05 mM EGTA/1 mM PMSF). Pellets from cells transfected with vector, pFLAG-β-TRCP, or pFLAG-Cul-1 were vortexed for 10 sec, then incubated on ice for 15 min. After centrifugation at 13,000 rpm in an Eppendorf microfuge (Germany) for 5 min at 4° C., the supernatant was added to 20 μl of FLAG M2 beads (Sigma), which were washed with lysis buffer three times before immu-noprecipitation. […] The beads were washed once each with buffers A and B. After centrifugation at 13,000 rpm in an Eppendorf microfuge (Germany) for 1 min, half of the bead and supernatant fractions, representing bound and unbound, respectively, were evaluated by Western blotting as described above. […] SDS/PAGE loading buffer was added to terminate reactions, which were evaluated by Western blotting as described above.
Before testing the activity of Protac-1, an approach to isolate and assay SCF^β-TRCP complexes in vitro as described (See Tan, P., et al., Mol. Cell, 3:327–33 (1999)) was first adapted. […] The beads and supernatant then were evaluated by Western blot analysis for the presence of MetAP-2. […]
Target sequence in this assay (Q9Y297 whole entry): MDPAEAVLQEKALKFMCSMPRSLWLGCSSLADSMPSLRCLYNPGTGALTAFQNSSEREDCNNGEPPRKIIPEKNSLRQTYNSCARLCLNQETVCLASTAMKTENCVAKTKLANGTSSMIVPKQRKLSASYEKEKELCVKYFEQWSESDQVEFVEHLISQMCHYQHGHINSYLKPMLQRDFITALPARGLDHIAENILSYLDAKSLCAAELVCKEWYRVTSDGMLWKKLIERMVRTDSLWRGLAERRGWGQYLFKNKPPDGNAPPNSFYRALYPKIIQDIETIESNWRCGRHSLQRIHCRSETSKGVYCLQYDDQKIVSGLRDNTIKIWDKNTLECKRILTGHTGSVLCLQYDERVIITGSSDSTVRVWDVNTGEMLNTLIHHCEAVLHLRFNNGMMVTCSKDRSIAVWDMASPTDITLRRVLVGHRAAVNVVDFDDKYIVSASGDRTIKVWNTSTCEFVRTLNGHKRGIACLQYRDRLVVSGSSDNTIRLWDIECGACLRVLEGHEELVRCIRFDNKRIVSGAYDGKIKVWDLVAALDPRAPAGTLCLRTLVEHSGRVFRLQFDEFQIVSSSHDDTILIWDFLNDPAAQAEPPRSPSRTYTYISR
Target sequence in this assay (Q13616 whole entry partner): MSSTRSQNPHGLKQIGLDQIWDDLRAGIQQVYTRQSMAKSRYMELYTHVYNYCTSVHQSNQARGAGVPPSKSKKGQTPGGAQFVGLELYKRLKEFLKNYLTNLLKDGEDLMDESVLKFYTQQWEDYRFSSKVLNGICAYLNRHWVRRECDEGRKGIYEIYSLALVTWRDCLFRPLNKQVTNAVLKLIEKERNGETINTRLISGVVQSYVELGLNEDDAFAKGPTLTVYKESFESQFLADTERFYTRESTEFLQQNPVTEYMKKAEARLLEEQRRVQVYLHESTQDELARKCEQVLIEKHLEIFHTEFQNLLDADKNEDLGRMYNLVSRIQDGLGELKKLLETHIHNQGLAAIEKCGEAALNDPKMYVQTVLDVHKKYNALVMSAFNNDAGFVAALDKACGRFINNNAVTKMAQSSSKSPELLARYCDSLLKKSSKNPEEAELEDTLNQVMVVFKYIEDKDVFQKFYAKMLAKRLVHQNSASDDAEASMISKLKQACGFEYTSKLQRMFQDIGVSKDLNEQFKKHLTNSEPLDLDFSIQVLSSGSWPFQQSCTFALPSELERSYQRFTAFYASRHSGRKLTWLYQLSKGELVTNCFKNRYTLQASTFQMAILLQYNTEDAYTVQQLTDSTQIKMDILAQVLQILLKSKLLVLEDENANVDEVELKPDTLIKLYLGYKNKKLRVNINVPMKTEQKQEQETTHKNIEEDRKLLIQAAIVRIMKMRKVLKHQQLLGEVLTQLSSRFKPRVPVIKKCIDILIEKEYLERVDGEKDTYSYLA
Target sequence in this assay (P63208 2-163 partner limits assumed): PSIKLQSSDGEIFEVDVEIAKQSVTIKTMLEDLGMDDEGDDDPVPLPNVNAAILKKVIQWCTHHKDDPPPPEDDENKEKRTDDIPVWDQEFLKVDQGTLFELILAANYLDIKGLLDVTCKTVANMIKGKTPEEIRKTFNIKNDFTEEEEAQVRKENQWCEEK
Target sequence in this assay (P62877 whole entry partner): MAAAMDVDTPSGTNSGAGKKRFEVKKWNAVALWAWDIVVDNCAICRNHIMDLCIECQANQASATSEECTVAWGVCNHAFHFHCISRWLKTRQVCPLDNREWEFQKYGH
Target sequence in this assay (P50579 whole entry, further chain): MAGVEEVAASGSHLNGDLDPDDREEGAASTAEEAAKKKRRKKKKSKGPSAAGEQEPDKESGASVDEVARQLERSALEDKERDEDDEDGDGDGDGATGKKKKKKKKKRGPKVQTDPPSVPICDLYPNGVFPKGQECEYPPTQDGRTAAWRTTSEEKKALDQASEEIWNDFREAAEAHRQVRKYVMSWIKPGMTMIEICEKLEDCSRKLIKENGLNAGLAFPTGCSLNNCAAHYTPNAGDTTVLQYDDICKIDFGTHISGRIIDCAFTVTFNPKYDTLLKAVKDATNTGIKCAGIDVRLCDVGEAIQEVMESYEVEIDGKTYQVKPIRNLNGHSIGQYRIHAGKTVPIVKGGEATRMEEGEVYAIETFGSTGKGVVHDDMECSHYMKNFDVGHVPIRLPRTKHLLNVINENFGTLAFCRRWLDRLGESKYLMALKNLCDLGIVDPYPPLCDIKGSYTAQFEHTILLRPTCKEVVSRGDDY

Assay [6] deals with T2, SCF^β-TRCP. Briefly: Control ubiquitination of IKK-phosphorylated glutathione S-transferase-IkBalpha by SCFβ-TRCP immunoprecipitates. The settings on record: anti-FLAG SCFβ-TRCP immunoprecipitates; data not shown. Set-up: made in house; host or cells: 293T cells, transient transfection, anti-FLAG immunoprecipitation. The class given is biochemical. From the text:
Before testing the activity of Protac-1, an approach to isolate and assay SCF^β-TRCP complexes in vitro as described (See Tan, P., et al., Mol. Cell, 3:327–33 (1999)) was first adapted. Lysates from 293T cells transfected with plasmids that encoded β-TRCP and Cul-1 proteins tagged with the FLAG epitope at the N terminus were immunoprecipitated with anti-FLAG antibody-conjugated resin. Immunoblot analysis confirmed that all components of SCF^β-TRCP were present in the anti-FLAG immunoprecipitate, including Skp 1, Hrt 1, and the transfected FLAG Cul-1 and FLAG β-TRCP (data not shown). Furthermore, control experiments confirmed that these immunoprecipitates promoted ubiquitination of IKK-phosphorylated glutathione S-transferase-LkBalpha in a manner that was inhibited by the IPP and Protac-1 (data not shown; ref. 7). To determine whether Protac-1 could recruit MetAP-2 to SCF^β-TRCP , MetAP-2 (18 μM) was first incubated with Protac-1 (100 μM) for 45 mm at room temperature. After isolation of SCF^β-TRCP complexes, the anti-FLAG beads were supplemented with the MetAP-2-Protac-l mixture and rotated at room temperature for 1 hr. The beads and supernatant then were evaluated by Western blot analysis for the presence of MetAP-2. […]
Target sequence in this assay (Q9Y297 whole entry): as the sequence (Q9Y297 whole entry) above
Target sequence in this assay (Q13616 whole entry partner): as the sequence (Q13616 whole entry partner) above
Target sequence in this assay (P63208 2-163 partner limits assumed): as the sequence (P63208 2-163 partner limits assumed) above
Target sequence in this assay (P62877 whole entry partner): as the sequence (P62877 whole entry partner) above

T1 sequence (P50579 whole entry, species assumed): as the sequence (P50579 whole entry, further chain) above
T1 sequence (P50579 110-478 limits assumed): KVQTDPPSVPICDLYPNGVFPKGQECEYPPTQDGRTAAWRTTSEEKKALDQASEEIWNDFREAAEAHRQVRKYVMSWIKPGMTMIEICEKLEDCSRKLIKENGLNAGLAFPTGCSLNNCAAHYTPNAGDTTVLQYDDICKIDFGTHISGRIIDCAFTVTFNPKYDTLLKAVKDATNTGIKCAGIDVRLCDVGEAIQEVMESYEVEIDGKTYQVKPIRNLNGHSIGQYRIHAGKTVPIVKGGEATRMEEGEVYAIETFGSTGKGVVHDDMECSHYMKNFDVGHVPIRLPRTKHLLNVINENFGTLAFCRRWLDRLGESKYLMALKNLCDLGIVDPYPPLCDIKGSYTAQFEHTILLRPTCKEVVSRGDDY

For `CCCC[C@@H](C=O)NC(=O)[C@H](CC(C)C)NC(=O)[C@H](CC(C)C)NC(C)=O` [LLnL, N-acetyl-leu-leu-norleucinal] (Ac-Leu-Leu-[Nle]-aldehyde), the “effect on degradation of MetAP-2-Protac-1” value at MetAP-2 [1] (LLnL 50 μM final added to extract) is “attenuated”.
As to `CC[C@H](C)[C@H](NC(=O)[C@H]([C@@H](C)CC)N(C)C(C)=O)C(=O)N[C@H](C(=O)N[C@@H](CC(C)C)C(=O)[C@@]1(C)CO1)[C@@H](C)O` [epoxomicin], the “effect on degradation of MetAP-2-Protac-1” value on MetAP-2 [1] (epoxomicin 10 μM final added to extract) is “attenuated”.
As for `CO[C@@H]1[C@H](OC(=O)/C=C/C=C/C=C/C=C/C(=O)O)CC[C@]2(CO2)[C@H]1[C@@]1(C)O[C@@H]1CC=C(C)C` [fumagillin], the “inhibition of MetAP-2” value at MetAP-2 [2] was “inhibit MetAP-2 by covalently binding His-231 in the active site”.
Regarding “IkBa peptide-suberate-Gly-ovalicinol [Protac-1]”, the “formation of MetAP-2-Protac-1 complex (upper band / doublet on anti-MetAP-2 Western blot)” value on MetAP-2 [3] is “specifically conjugated to the OVA moiety of Protac-1 in a concentration-dependent manner”; on MetAP-2 [3] (listed as Protac), “MetAP-2 binds Protac specifically and in a concentration-dependent manner”. In the assay on MetAP-2 [4], the “ubiquitination of MetAP-2 by SCFβ-TRCP” value is given as “specifically elicited ubiquitination of MetAP-2 by SCF^β-TRCP; also recorded: ubiquitinated in the presence of Protac-1”. Further, the “degradation of MetAP-2-Protac-1 complex” value on MetAP-2 [1] (Xenopus egg extract with IKK-EE, OA and OVA, room temperature, MetAP-2 alone not degraded) is on record as “mostly degraded after 30 mm; also recorded: degraded by proteasomes in Xenopus extracts”. Besides, the “recruitment of MetAP-2 to SCFβ-TRCP beads” value on SCF^β-TRCP [5] is on record as “specifically recruited MetAP-2 to SCF^β-TRCP”. In addition, the “inhibition of ubiquitination of IKK-phosphorylated GST-IkBalpha” value on SCF^β-TRCP [6] is “inhibited”.
